# Experiment: The drug is tested on Bifidobacterium longum subsp. Infantis strain: CCUG52486 for biotransformation. The drug concentrations were measured before and after a 12-h incubation by liquid-chromatography-coupled mass spectrometry (LC–MS)
# Settings: 2 µM
row,SMILES,Bacterial Biotransformation
1,C#C[C@]1(O)CC[C@H]2[C@@H]3CCC4=Cc5oncc5C[C@]4(C)[C@H]3CC[C@@]21C [DANAZOL],Compound metabolized
2,C[C@@H]1CC[C@H]2[C@@H](C)C(=O)O[C@@H]3O[C@@]4(C)CC[C@@H]1[C@]32OO4 [ARTEMISININ],Compound metabolized
3,CN(C)C(=O)Oc1cc(OC(=O)N(C)C)cc(C(O)CNC(C)(C)C)c1 (stereo not given) [BAMBUTEROL],Compound NOT metabolized

# Experiment: The drug is tested on Collinsella aerofaciens strain: ATCC25986 for biotransformation. The drug concentrations were measured before and after a 12-h incubation by liquid-chromatography-coupled mass spectrometry (LC–MS)
# Settings: 2 µM
row,SMILES,Bacterial Biotransformation
1,C#C[C@]1(O)CC[C@H]2[C@@H]3CCC4=Cc5oncc5C[C@]4(C)[C@H]3CC[C@@]21C [DANAZOL],Compound metabolized
2,C[C@@H]1CC[C@H]2[C@@H](C)C(=O)O[C@@H]3O[C@@]4(C)CC[C@@H]1[C@]32OO4 [ARTEMISININ],Compound metabolized
3,CN(C)C(=O)Oc1cc(OC(=O)N(C)C)cc(C(O)CNC(C)(C)C)c1 (stereo not given) [BAMBUTEROL],Compound NOT metabolized

# Experiment: The drug is tested on Bacteroides caccae strain: ATCC43185 for biotransformation. The drug concentrations were measured before and after a 12-h incubation by liquid-chromatography-coupled mass spectrometry (LC–MS)
# Settings: 2 µM
row,SMILES,Bacterial Biotransformation
1,C#C[C@]1(O)CC[C@H]2[C@@H]3CCC4=Cc5oncc5C[C@]4(C)[C@H]3CC[C@@]21C [DANAZOL],Compound metabolized
2,C[C@@H]1CC[C@H]2[C@@H](C)C(=O)O[C@@H]3O[C@@]4(C)CC[C@@H]1[C@]32OO4 [ARTEMISININ],Compound metabolized
3,CN(C)C(=O)Oc1cc(OC(=O)N(C)C)cc(C(O)CNC(C)(C)C)c1 (stereo not given) [BAMBUTEROL],Compound NOT metabolized

# Experiment: The drug is tested on Bacteroides finegoldii strain: DSM17565 for biotransformation. The drug concentrations were measured before and after a 12-h incubation by liquid-chromatography-coupled mass spectrometry (LC–MS)
# Settings: 2 µM
row,SMILES,Bacterial Biotransformation
1,C#C[C@]1(O)CC[C@H]2[C@@H]3CCC4=Cc5oncc5C[C@]4(C)[C@H]3CC[C@@]21C [DANAZOL],Compound metabolized
2,C[C@@H]1CC[C@H]2[C@@H](C)C(=O)O[C@@H]3O[C@@]4(C)CC[C@@H]1[C@]32OO4 [ARTEMISININ],Compound metabolized
3,CN(C)C(=O)Oc1cc(OC(=O)N(C)C)cc(C(O)CNC(C)(C)C)c1 (stereo not given) [BAMBUTEROL],Compound NOT metabolized

# Experiment: The drug is tested on Bacteroides fragilis strain: HMW615 for biotransformation. The drug concentrations were measured before and after a 12-h incubation by liquid-chromatography-coupled mass spectrometry (LC–MS)
# Settings: 2 µM
row,SMILES,Bacterial Biotransformation
1,C#C[C@]1(O)CC[C@H]2[C@@H]3CCC4=Cc5oncc5C[C@]4(C)[C@H]3CC[C@@]21C [DANAZOL],Compound metabolized
2,C[C@@H]1CC[C@H]2[C@@H](C)C(=O)O[C@@H]3O[C@@]4(C)CC[C@@H]1[C@]32OO4 [ARTEMISININ],Compound metabolized
3,CN(C)C(=O)Oc1cc(OC(=O)N(C)C)cc(C(O)CNC(C)(C)C)c1 (stereo not given) [BAMBUTEROL],Compound NOT metabolized

# Experiment: The drug is tested on Bacteroides fragilis strain: ATCC43859 for biotransformation. The drug concentrations were measured before and after a 12-h incubation by liquid-chromatography-coupled mass spectrometry (LC–MS)
# Settings: 2 µM
row,SMILES,Bacterial Biotransformation
1,C#C[C@]1(O)CC[C@H]2[C@@H]3CCC4=Cc5oncc5C[C@]4(C)[C@H]3CC[C@@]21C [DANAZOL],Compound metabolized
2,C[C@@H]1CC[C@H]2[C@@H](C)C(=O)O[C@@H]3O[C@@]4(C)CC[C@@H]1[C@]32OO4 [ARTEMISININ],Compound metabolized
3,CN(C)C(=O)Oc1cc(OC(=O)N(C)C)cc(C(O)CNC(C)(C)C)c1 (stereo not given) [BAMBUTEROL],Compound NOT metabolized

# Experiment: The drug is tested on Bacteroides xylanisolvens strain: DSM18836 for biotransformation. The drug concentrations were measured before and after a 12-h incubation by liquid-chromatography-coupled mass spectrometry (LC–MS)
# Settings: 2 µM
row,SMILES,Bacterial Biotransformation
1,C#C[C@]1(O)CC[C@H]2[C@@H]3CCC4=Cc5oncc5C[C@]4(C)[C@H]3CC[C@@]21C [DANAZOL],Compound metabolized
2,C[C@@H]1CC[C@H]2[C@@H](C)C(=O)O[C@@H]3O[C@@]4(C)CC[C@@H]1[C@]32OO4 [ARTEMISININ],Compound metabolized
3,CN(C)C(=O)Oc1cc(OC(=O)N(C)C)cc(C(O)CNC(C)(C)C)c1 (stereo not given) [BAMBUTEROL],Compound NOT metabolized

# Experiment: The drug is tested on Odoribacter splanchnicus strain: fecal isolate for biotransformation. The drug concentrations were measured before and after a 12-h incubation by liquid-chromatography-coupled mass spectrometry (LC–MS)
# Settings: 2 µM
row,SMILES,Bacterial Biotransformation
1,C#C[C@]1(O)CC[C@H]2[C@@H]3CCC4=Cc5oncc5C[C@]4(C)[C@H]3CC[C@@]21C [DANAZOL],Compound metabolized
2,C[C@@H]1CC[C@H]2[C@@H](C)C(=O)O[C@@H]3O[C@@]4(C)CC[C@@H]1[C@]32OO4 [ARTEMISININ],Compound metabolized
3,CN(C)C(=O)Oc1cc(OC(=O)N(C)C)cc(C(O)CNC(C)(C)C)c1 (stereo not given) [BAMBUTEROL],Compound NOT metabolized

# Experiment: The drug is tested on Clostridium scindens strain: ATCC35704 for biotransformation. The drug concentrations were measured before and after a 12-h incubation by liquid-chromatography-coupled mass spectrometry (LC–MS)
# Settings: 2 µM
row,SMILES,Bacterial Biotransformation
1,C#C[C@]1(O)CC[C@H]2[C@@H]3CCC4=Cc5oncc5C[C@]4(C)[C@H]3CC[C@@]21C [DANAZOL],Compound metabolized
2,C[C@@H]1CC[C@H]2[C@@H](C)C(=O)O[C@@H]3O[C@@]4(C)CC[C@@H]1[C@]32OO4 [ARTEMISININ],Compound metabolized
3,CN(C)C(=O)Oc1cc(OC(=O)N(C)C)cc(C(O)CNC(C)(C)C)c1 (stereo not given) [BAMBUTEROL],Compound NOT metabolized

# Experiment: The drug is tested on Clostridium sporogenes strain: ATCC15579 for biotransformation. The drug concentrations were measured before and after a 12-h incubation by liquid-chromatography-coupled mass spectrometry (LC–MS)
# Settings: 2 µM
row,SMILES,Bacterial Biotransformation
1,C#C[C@]1(O)CC[C@H]2[C@@H]3CCC4=Cc5oncc5C[C@]4(C)[C@H]3CC[C@@]21C [DANAZOL],Compound metabolized
2,C[C@@H]1CC[C@H]2[C@@H](C)C(=O)O[C@@H]3O[C@@]4(C)CC[C@@H]1[C@]32OO4 [ARTEMISININ],Compound metabolized
3,CN(C)C(=O)Oc1cc(OC(=O)N(C)C)cc(C(O)CNC(C)(C)C)c1 (stereo not given) [BAMBUTEROL],Compound NOT metabolized

# Experiment: The drug is tested on Coprococcus comes strain: ATCC27758 for biotransformation. The drug concentrations were measured before and after a 12-h incubation by liquid-chromatography-coupled mass spectrometry (LC–MS)
# Format: ADME
# Parameters: dose 2 uM, timepoint 0 vs 12 hours
# Settings: 2 µM
row,SMILES,Bacterial Biotransformation
1,C#C[C@]1(O)CC[C@H]2[C@@H]3CCC4=Cc5oncc5C[C@]4(C)[C@H]3CC[C@@]21C [DANAZOL],Compound metabolized
2,C[C@@H]1CC[C@H]2[C@@H](C)C(=O)O[C@@H]3O[C@@]4(C)CC[C@@H]1[C@]32OO4 [ARTEMISININ],Compound metabolized
3,CN(C)C(=O)Oc1cc(OC(=O)N(C)C)cc(C(O)CNC(C)(C)C)c1 (stereo not given) [BAMBUTEROL],Compound NOT metabolized

# Experiment: The drug is tested on Eubacterium hallii strain: DSM3353 for biotransformation. The drug concentrations were measured before and after a 12-h incubation by liquid-chromatography-coupled mass spectrometry (LC–MS)
# Settings: anaerobutyricum hallii, 2 µM
row,SMILES,Bacterial Biotransformation
1,C#C[C@]1(O)CC[C@H]2[C@@H]3CCC4=Cc5oncc5C[C@]4(C)[C@H]3CC[C@@]21C [DANAZOL],Compound metabolized
2,C[C@@H]1CC[C@H]2[C@@H](C)C(=O)O[C@@H]3O[C@@]4(C)CC[C@@H]1[C@]32OO4 [ARTEMISININ],Compound metabolized
3,CN(C)C(=O)Oc1cc(OC(=O)N(C)C)cc(C(O)CNC(C)(C)C)c1 (stereo not given) [BAMBUTEROL],Compound NOT metabolized

# Experiment: The drug is tested on Ruminococcus lactaris strain: ATCC29176 for biotransformation. The drug concentrations were measured before and after a 12-h incubation by liquid-chromatography-coupled mass spectrometry (LC–MS)
# Settings: 2 µM
row,SMILES,Bacterial Biotransformation
1,C#C[C@]1(O)CC[C@H]2[C@@H]3CCC4=Cc5oncc5C[C@]4(C)[C@H]3CC[C@@]21C [DANAZOL],Compound metabolized
2,C[C@@H]1CC[C@H]2[C@@H](C)C(=O)O[C@@H]3O[C@@]4(C)CC[C@@H]1[C@]32OO4 [ARTEMISININ],Compound metabolized
3,CN(C)C(=O)Oc1cc(OC(=O)N(C)C)cc(C(O)CNC(C)(C)C)c1 (stereo not given) [BAMBUTEROL],Compound NOT metabolized

# Experiment: The drug is tested on Enterobacter cancerogenus strain: ATCC35316 for biotransformation. The drug concentrations were measured before and after a 12-h incubation by liquid-chromatography-coupled mass spectrometry (LC–MS)
# Settings: 2 µM
row,SMILES,Bacterial Biotransformation
1,C#C[C@]1(O)CC[C@H]2[C@@H]3CCC4=Cc5oncc5C[C@]4(C)[C@H]3CC[C@@]21C [DANAZOL],Compound metabolized
2,C[C@@H]1CC[C@H]2[C@@H](C)C(=O)O[C@@H]3O[C@@]4(C)CC[C@@H]1[C@]32OO4 [ARTEMISININ],Compound metabolized
3,CN(C)C(=O)Oc1cc(OC(=O)N(C)C)cc(C(O)CNC(C)(C)C)c1 (stereo not given) [BAMBUTEROL],Compound NOT metabolized

# Experiment: The drug is tested on Providencia rettgeri strain: DSM1131 for biotransformation. The drug concentrations were measured before and after a 12-h incubation by liquid-chromatography-coupled mass spectrometry (LC–MS)
# Format: ADME
# Parameters: dose 2 uM, timepoint 0 vs 12 hours
# Settings: 2 µM
row,SMILES,Bacterial Biotransformation
1,C#C[C@]1(O)CC[C@H]2[C@@H]3CCC4=Cc5oncc5C[C@]4(C)[C@H]3CC[C@@]21C [DANAZOL],Compound metabolized
2,C[C@@H]1CC[C@H]2[C@@H](C)C(=O)O[C@@H]3O[C@@]4(C)CC[C@@H]1[C@]32OO4 [ARTEMISININ],Compound metabolized
3,CN(C)C(=O)Oc1cc(OC(=O)N(C)C)cc(C(O)CNC(C)(C)C)c1 (stereo not given) [BAMBUTEROL],Compound NOT metabolized

# Settings: bacteroides fragilis, 12 h, 2 µM
# Description: The drug is tested on Bacteroides fragilis strain: 3397 (T10) for biotransformation. The drug concentrations were measured before and after a 12-h incubation by liquid-chromatography-coupled mass spectrometry (LC–MS)
row,SMILES,Bacterial Biotransformation
1,C#C[C@]1(O)CC[C@H]2[C@@H]3CCC4=Cc5oncc5C[C@]4(C)[C@H]3CC[C@@]21C [DANAZOL],Compound metabolized
2,C[C@@H]1CC[C@H]2[C@@H](C)C(=O)O[C@@H]3O[C@@]4(C)CC[C@@H]1[C@]32OO4 [ARTEMISININ],Compound metabolized
3,CN(C)C(=O)Oc1cc(OC(=O)N(C)C)cc(C(O)CNC(C)(C)C)c1 (stereo not given) [BAMBUTEROL],Compound NOT metabolized

# Settings: bacteroides intestinalis, 12 h, 2 µM
# Description: The drug is tested on Bacteroides intestinalis strain: DSM17393 for biotransformation. The drug concentrations were measured before and after a 12-h incubation by liquid-chromatography-coupled mass spectrometry (LC–MS)
row,SMILES,Bacterial Biotransformation
1,C#C[C@]1(O)CC[C@H]2[C@@H]3CCC4=Cc5oncc5C[C@]4(C)[C@H]3CC[C@@]21C [DANAZOL],Compound metabolized
2,C[C@@H]1CC[C@H]2[C@@H](C)C(=O)O[C@@H]3O[C@@]4(C)CC[C@@H]1[C@]32OO4 [ARTEMISININ],Compound metabolized
3,CN(C)C(=O)Oc1cc(OC(=O)N(C)C)cc(C(O)CNC(C)(C)C)c1 (stereo not given) [BAMBUTEROL],Compound NOT metabolized

# Settings: bacteroides thetaiotaomicron, 12 h, 2 µM
# Description: The drug is tested on Bacteroides thetaiotaomicron strain: 3731 for biotransformation. The drug concentrations were measured before and after a 12-h incubation by liquid-chromatography-coupled mass spectrometry (LC–MS)
row,SMILES,Bacterial Biotransformation
1,C#C[C@]1(O)CC[C@H]2[C@@H]3CCC4=Cc5oncc5C[C@]4(C)[C@H]3CC[C@@]21C [DANAZOL],Compound metabolized
2,C[C@@H]1CC[C@H]2[C@@H](C)C(=O)O[C@@H]3O[C@@]4(C)CC[C@@H]1[C@]32OO4 [ARTEMISININ],Compound metabolized
3,CN(C)C(=O)Oc1cc(OC(=O)N(C)C)cc(C(O)CNC(C)(C)C)c1 (stereo not given) [BAMBUTEROL],Compound NOT metabolized

# Settings: parabacteroides distasonis, 12 h, 2 µM
# Description: The drug is tested on Parabacteroides distasonis strain: ATCC8503 for biotransformation. The drug concentrations were measured before and after a 12-h incubation by liquid-chromatography-coupled mass spectrometry (LC–MS)
row,SMILES,Bacterial Biotransformation
1,C#C[C@]1(O)CC[C@H]2[C@@H]3CCC4=Cc5oncc5C[C@]4(C)[C@H]3CC[C@@]21C [DANAZOL],Compound metabolized
2,C[C@@H]1CC[C@H]2[C@@H](C)C(=O)O[C@@H]3O[C@@]4(C)CC[C@@H]1[C@]32OO4 [ARTEMISININ],Compound metabolized
3,CN(C)C(=O)Oc1cc(OC(=O)N(C)C)cc(C(O)CNC(C)(C)C)c1 (stereo not given) [BAMBUTEROL],Compound NOT metabolized

# Settings: anaerostipes sp., 12 h, 2 µM
# Description: The drug is tested on Anaerostipes sp. strain: fecal isolate for biotransformation. The drug concentrations were measured before and after a 12-h incubation by liquid-chromatography-coupled mass spectrometry (LC–MS)
row,SMILES,Bacterial Biotransformation
1,C#C[C@]1(O)CC[C@H]2[C@@H]3CCC4=Cc5oncc5C[C@]4(C)[C@H]3CC[C@@]21C [DANAZOL],Compound metabolized
2,C[C@@H]1CC[C@H]2[C@@H](C)C(=O)O[C@@H]3O[C@@]4(C)CC[C@@H]1[C@]32OO4 [ARTEMISININ],Compound metabolized
3,CN(C)C(=O)Oc1cc(OC(=O)N(C)C)cc(C(O)CNC(C)(C)C)c1 (stereo not given) [BAMBUTEROL],Compound NOT metabolized
